In general, IC50 refers to the concentration needed to halve the response being measured.

Assay [1] relates to purified α-L-fucosidase from Bacteroides thetaiotaomicron. The assay is described as follows: In vitro ABP labeling of purified bacterial α-L-fucosidase. The class given is binding. The procedure:
All pre-incubations and ABP labeling-reactions occurred for 30 min at 37 °C. Total lysates (50 μg), medium (500 μg) or purified protein preparations (5 μg) were labeled with 1 μM JJB256 1 or JJB244 2, dissolved in 150 mM McIlvaine buffer, pH 4.5, incubating for 30 min at 37 °C. For ABPP, protein preparations were pre-incubated with compounds 4 (100 μM), 6 (100 μM), 7–13 (1 or 5 mM, specified in the main text) prior to the addition of 100 nM fluorescent ABPs. Influence of pH on ABP labeling involved pre-incubation at pH 3–10 prior to addition of 100 nM ABP 1. Direct labeling of retaining β-glucosidases occurred at pH 5.0 in conjunction with 100 nM ABP JJB75. Samples were then denatured with 5× Laemmli buffer (50% (v/v) 1 M Tris–HCl, pH 6.8, 50% (v/v) 100% glycerol, 10% (w/v) DTT, 10% (w/v) SDS, 0.01% (w/v) bromophenol blue), boiled for 4 min at 100 °C, and separated by gel electrophoresis on 10% (w/v) SDS-PAGE gels running continuously at 90 V.[13],[14] Wet slab-gels were scanned on fluorescence using a Typhoon Variable Mode Imager (Amersham Biosciences) using λEX 488 nm and λEM 520 nm (band pass filter 40 nm) for green fluorescent JJB256 1 and λEX 532 nm and λEM 610 nM (band pass filter 30 nm) for red fluorescent JJB244 2 and JJB75.

The next assay has as its target T1, FUCA1 (Homo sapiens, UniProt P04066).
T1 sequence (P04066 32-466): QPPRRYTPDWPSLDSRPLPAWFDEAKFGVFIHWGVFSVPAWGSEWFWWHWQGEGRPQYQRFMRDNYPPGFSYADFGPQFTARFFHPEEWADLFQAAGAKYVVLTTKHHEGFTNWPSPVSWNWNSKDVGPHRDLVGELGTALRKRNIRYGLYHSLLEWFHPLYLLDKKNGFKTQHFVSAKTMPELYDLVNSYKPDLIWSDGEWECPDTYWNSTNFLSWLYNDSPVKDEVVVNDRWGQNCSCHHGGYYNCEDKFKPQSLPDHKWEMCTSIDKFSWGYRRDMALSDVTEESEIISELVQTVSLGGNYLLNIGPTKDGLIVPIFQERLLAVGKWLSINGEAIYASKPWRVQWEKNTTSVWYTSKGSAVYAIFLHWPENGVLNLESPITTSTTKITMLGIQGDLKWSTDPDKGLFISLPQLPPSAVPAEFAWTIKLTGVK
Kind of assay: ABP pulldown from Gaucher spleen lysate and LC-MS/MS identification. The class given is binding. Set-up: lysates of spleens from a healthy human individual and a patient suffering from Gaucher disease; from tissue; host or cells: human spleen (normal subject and type 1 Gaucher patient). The conditions noted are these: 10 μM pre-incubation followed by 10 μM ABP 3. How it is done:
To further determine the specificity of the developed ABPs, we have analyzed the ABP-labeled proteins in a complex tissue homogenate. For this purpose, we incubated Gaucher spleen lysate with biotinylated ABP 3 or with DMSO only (control) or competitive ABP 3-labeling by first incubating with fluorescent ABP 1. Glycosylated proteins were then enriched via ConA, followed by affinity purification with streptavidin coated paramagnetic beads. The identity of biotinylated and ABP 3-labeled proteins was determined by on-bead digestion with trypsin, peptide analysis by LC-MS/MS and matching against the human UniProt database, using the Mascot search engine as previously reported.[14] […]
Gaucher spleen lysate (1 g) was cut with a sterile scalpel, mixed with 4 mL 25 mM potassium phosphate buffer (pH 6.5, supplemented with 0.1% (v/v) Triton X-100 and protease inhibitor cocktail (Roche)) and sonicated three times for 10 seconds at 100% strength and kept on ice. […] Lysate was then centrifuged for 10 min at 10 000 g, supernatant collected carefully, protein concentration determined and […] total protein was then incubated with either 0.1% (v/v) DMSO, ABP 1 or ABP 3, or firstly with 10 μM ABP 1 followed by 10 μM of ABP 3, each step taking 30 min at 37 °C, in a total volume of 1 mL McIlvaine buffer, pH 4.5. […]

The target of assay [2] is T2, FUCA1 (recombinant human GH29 α-L-fucosidase per table title) (Homo sapiens, UniProt P04066).
T2 construct: endogenous in cells; host or cells: fibroblasts
T2 sequence (P04066 32-466): T1 sequence (P04066 32-466)
Kind of assay: In situ inhibition of FUCA1 in living fibroblasts. It is filed as cell-based.

In the case of `CC1=CC(C)=[N+]2C1=C(CCCCc1cn(CCCCCCCC(=O)N3[C@@H]4[C@@H](C)[C@@H](O)[C@@H](O)[C@H](O)[C@@H]43)nn1)c1c(C)cc(C)n1[B-]2(F)F` [compound 1], in assay [1], the labeling of enzyme entry is listed as “efficiently labels”. Besides, the “blocking of ABP 3 binding by pre-incubation” value on FUCA1 is given as “completely blocked”. Also, the half-inhibitory concentration (IC50) in assay [2] was 28.9 ± 4.4 nM.

For the origin of these results see article PMC5654414, “In vitro and in vivo comparative and competitive activity-based protein profiling of GH29 α-L-fucosidases” (Chemical Science, 2015).
